Read-outs that look alike come from different tables or passages of the source.

The target of experiment [1] is T1, cloned recombinant human HDAC-1 (Homo sapiens, UniProt Q13547).
T1 construct: made in house; host or cells: Baculovirus insect cell expression system
Kind of experiment: Human HDAC-1 enzyme inhibition, Assay 1 ([3H]-acetylated histone substrate, scintillation counting). The class given is biochemical. In a few lines: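 Recombinant human HDAC-1 from baculovirus-infected insect cells, preincubated with compound 30 min at 4° C. before reaction. Released [3H]-acetic acid extracted with ethyl acetate and counted by scintillation. IC50 taken from dose-response curves as concentration giving half-maximal inhibition.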

The subject of the next experiment is HCT116 cells. Briefly: MTT assay. The class given is cell-based. The following applies: Homo sapiens, HCT116 cells, 72 hours. The gist of the method: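 Cells plated one day before dosing, then exposed to compound 72 h at 37 °C, 5% CO2. MTT at 0.5 mg/ml final for 4 h, solubilized in DMF/SDS buffer pH 4.7; OD converted to cell number from a standard growth curve.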

The test system of experiment [2] is acetylated histone H-4 in T24 human bladder cancer cells. Kind of experiment: Histone H4 acetylation in whole cells by immunoblots. The class given is cell-based. The following applies: 16 h. The gist of the method:
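T24 cells were treated with HDAC inhibitors for 16 h; […] total histone protein was resolved by SDS/PAGE and immunoblotted with polyclonal anti-acetylated H4 antibody. ECL detection, with signal quantified by densitometry.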
On the technique in general: Immunoblotting shows a protein as a band on a membrane.

Where [3] appears, read: Table 5d, read-out: HDAC-1 IC50.
The mark [4] stands for this setting: T-24, Table 5d, read-out: H4Ac(T24) EC50.
Setting [5] is: Table 5F, read-out: Human HDAC-1 IC50.
The mark [6] stands for this setting: T-24, Table 5F, read-out: H4 Ac (T24) EC50.

T1 sequence (Q13547 whole entry): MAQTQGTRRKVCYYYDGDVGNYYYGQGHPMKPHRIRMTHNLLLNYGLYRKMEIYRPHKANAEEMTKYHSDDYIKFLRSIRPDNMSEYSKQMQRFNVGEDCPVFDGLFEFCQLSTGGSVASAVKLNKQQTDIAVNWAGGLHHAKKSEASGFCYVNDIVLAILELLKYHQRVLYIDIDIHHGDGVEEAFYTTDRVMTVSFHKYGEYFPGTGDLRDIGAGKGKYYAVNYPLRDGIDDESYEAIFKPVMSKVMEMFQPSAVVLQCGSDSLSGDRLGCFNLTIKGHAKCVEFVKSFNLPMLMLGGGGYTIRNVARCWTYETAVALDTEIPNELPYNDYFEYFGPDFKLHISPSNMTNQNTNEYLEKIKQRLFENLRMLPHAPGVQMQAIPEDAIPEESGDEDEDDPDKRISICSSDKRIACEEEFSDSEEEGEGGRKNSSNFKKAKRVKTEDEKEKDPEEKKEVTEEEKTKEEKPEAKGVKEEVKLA

`Nc1ccccc1NC(=O)/C=C/c1ccc(NCc2cccc(O)c2)nc1` [Cpd 524, N-(2-Amino-phenyl)-3-[6-(3-hydroxy-benzylamino)-pyridin-3-yl]-acrylamide]: the IC50 – broadly, the point on the concentration scale where inhibition reaches its midpoint – in experiment [1] (setting [3]) was 3000 nM; in the experiment with HCT116 cells (HCT-116, Table 5d) it was 2000 nM. The EC50 (commonly the concentration needed to bring the measured effect to its halfway point) in experiment [2] (setting [4]) came out at 3000 nM.

In the case of `Nc1ccccc1NC(=O)/C=C/c1ccc(NCc2cccc(OCC(F)(F)F)c2)nc1` [Cpd 525, N-(2-Amino-phenyl)-3-{6-[3-(2,2,2-trifluoro-ethoxy)-benzylamino]-pyridin-3-yl}-acrylamide], the IC50 came to 3000 nM in experiment [1] (setting [3]) and 4000 nM in the experiment with HCT116 cells (HCT-116, Table 5d). The EC50 in experiment [2] (setting [4]) amounted to 5000 nM.

In the case of `CN1CCN(c2ccc(NCc3ccc(/C=C/C(=O)Nc4ccccc4N)cc3)cc2C(F)(F)F)CC1` [Cpd 526], the IC50 was 2000 nM in experiment [1] (setting [3]) and 800 nM in the experiment with HCT116 cells (HCT-116, Table 5d). Moreover, the EC50 in experiment [2] (setting [4]) amounted to 1000 nM.

Take `Nc1ccccc1NC(=O)/C=C/c1ccc(CNc2ccc(Cc3ccncc3)cc2)cc1` [Cpd 531, N-(2-Amino-phenyl)-3-{4-[(4-pyridin-4-ylmethyl-phenylamino)-methyl]-phenyl}-acrylamide]: the IC50 in experiment [1] (HDAC-1 IC50, Table 5d) stood at 3000 nM; with HCT116 cells (HCT-116, Table 5d), 2000 nM. For the same compound, in experiment [2] (setting [4]), the 50% effective concentration (EC50) stood at 20000 nM.

For `COc1cc(/C=C\c2ccc(/C=C/C(=O)Nc3ccccc3N)cc2)cc(OC)c1OC` [Cpd 537, N-(2-Amino-phenyl)-3-{4-[2-(3,4,5-trimethoxy-phenyl)-vinyl]-phenyl}-acrylamide], the 50% inhibitory concentration (IC50) in experiment [1] (setting [3]) is 11000 nM; in the experiment with HCT116 cells (HCT-116, Table 5d), 2000 nM. Also, the EC50 in experiment [2] (setting [4]) was greater than 25000 nM.

In the case of `CSc1ccc(NCc2ccc(/C=C/C(=O)Nc3ccccc3N)cc2)cc1` [Cpd 556, N-(2-Amino-phenyl)-3-{4-[(4-methylsulfanyl-phenylamino)-methyl]-phenyl}acrylamide], the half-inhibitory concentration (IC50) in experiment [1] (setting [3]) was determined as 1000 nM; in the experiment on HCT116 cells (HCT-116, Table 5d), 400 nM. Besides, the EC50 in experiment [2] (setting [4]) turned out to be 15000 nM.

For the compound `COc1cc(NCc2ccc(/C=C/C(=O)Nc3cscc3N)cc2)cc(OC)c1OC` [Cpd 570], the IC50 came out at 6000 nM in experiment [1] (setting [3]) and 600 nM in the experiment on HCT116 cells (HCT-116, Table 5d). In addition, in experiment [2] (setting [4]), the EC50 came out at 2000 nM.

With `Nc1cscc1NC(=O)c1ccc(CNc2nc3ccc(OCCN4CCOCC4)cc3s2)cc1` [Cpd 573, N-(4-Amino-thiophen-3-yl)-4-{[6-(2-morpholin-4-yl-ethoxy)-benzothiazol-2-ylamino]-methyl}-benzamide], the IC50 was found to be 7000 nM in experiment [1] (setting [5]) and 400 nM in the experiment on HCT116 cells (HCT-116, 72 h, Table 5F). Also, in experiment [2] (setting [6]), the EC50 came to 1000 nM.

In the case of `COc1cc(NCc2ccc(C(=O)Nc3cscc3N)cc2)cc(OC)c1OC` [Cpd 574, N-(4-Amino-thiophen-3-yl)-4-[(3,4,5-trimethoxy-phenylamino)-methyl]-benzamide], the half-inhibitory concentration (IC50) in experiment [1] (setting [5]) was 13000 nM; with HCT116 cells (HCT-116, 72 h, Table 5F), 700 nM. In addition, the EC50 in experiment [2] (setting [6]) amounted to 3000 nM.

As for `COc1ccc2[nH]c(SCc3ccc(C(=O)Nc4cscc4N)cc3)nc2c1` [Cpd 575, N-(4-Amino-thiophen-3-yl)-4-(5-methoxy-1H-benzoimidazol-2-ylsulfanyl-methyl)-benzamide], the IC50 in experiment [1] (setting [5]) was determined as 2000 nM; with HCT116 cells (HCT-116, 72 h, Table 5F), 200 nM. Moreover, in experiment [2] (setting [6]), the EC50 was 1000 nM.

Take `Cc1ccc(C#N)c(OCc2ccc(C(=O)Nc3ccccc3N)cc2)n1` [Cpd 577, N-(2-Amino-phenyl)-4-(3-cyano-6-methyl-pyridin-2-yloxymethyl)-benzamide]: the half-maximal inhibitory concentration (IC50) came to 2000 nM in experiment [1] (setting [5]) and 500 nM in the experiment with HCT116 cells (HCT-116, 72 h, Table 5F). Besides, the EC50 in experiment [2] (setting [6]) is 2000 nM.

Regarding `CC(=O)Nc1sc(Cc2ccc(C(=O)Nc3ccccc3N)cc2)cc1C(N)=O` [Cpd 579, 2-Acetylamino-5-[4-(2-amino-phenyl-carbamoyl)-benzyl]-thiophene-3-carboxamide], the IC50 worked out at 2000 nM in experiment [1] (setting [5]) and 500 nM in the experiment on HCT116 cells (HCT-116, 72 h, Table 5F). Besides, the EC50 in experiment [2] (setting [6]) amounted to 1000 nM.

For the compound `CNc1nc2ccc(NCc3ccc(C(=O)Nc4ccccc4N)cc3)cc2n1C` [Cpd 580], the IC50 in experiment [1] (setting [5]) is 4000 nM; in the experiment on HCT116 cells (HCT-116, 72 h, Table 5F), 300 nM. The EC50 in experiment [2] (setting [6]) was less than 1000 nM.

With `COc1ccc2[nH]c(SCc3ccc4oc(C(=O)Nc5ccccc5N)cc4c3)nc2c1` [Cpd 591, 5-(5-Methoxy-1H-benzoimidazol-2-ylsulfanyl-methyl)-benzofuran-2-carboxylic acid (2-amino-phenyl)amide], the IC50 came out at 4000 nM in experiment [1] (setting [5]) and 300 nM with HCT116 cells (HCT-116, 72 h, Table 5F). The EC50 in experiment [2] (setting [6]) was less than 1000 nM.

Turning to `COc1cc(CNc2ccc3oc(C(=O)Nc4ccccc4N)cc3c2)cc(OC)c1OC` [Cpd 592, 5-(3,4,5-Trimethoxy-benzylamino)-benzofuran-2-carboxylic acid (2-amino-phenyl)-amide], the IC50 in experiment [1] (setting [5]) is 5000 nM; with HCT116 cells (HCT-116, 72 h, Table 5F) it was 400 nM. In addition, the EC50 in experiment [2] (setting [6]) was less than 1000 nM.

With `Cc1sc2ncn(Cc3ccc(C(=O)Nc4ccccc4N)cc3)c(=O)c2c1C` [compound 259, N-(2-Amino-phenyl)-4-(5,6-dimethyl-4-oxo-4H-thieno[2,3-d]pyrimidin-3-ylmethyl)-benzamide], the IC50 in experiment [1] (setting [5]) was 3000 nM; with HCT116 cells (HCT-116, 72 h, Table 5F), 300 nM. Moreover, the EC50 in experiment [2] (setting [6]) was determined as 1000 nM.

Regarding `Nc1ccccc1NC(=O)c1ccc(Cc2coc3ccccc3c2=O)cc1` [compound 262, N-(2-Amino-phenyl)-4-(4-oxo-4H-chromen-3-ylmethyl)-benzamide], the IC50 in experiment [1] (setting [5]) is 500 nM; with HCT116 cells (HCT-116, 72 h, Table 5F), 300 nM. Also, the EC50 in experiment [2] (setting [6]) amounted to 1000 nM.

Consider `Nc1ccccc1NC(=O)c1ccc(CC2COc3ccccc3C2)cc1` (stereo not drawn) [compound 265, N-(2-Amino-phenyl)-4-chroman-3-ylmethyl-benzamide], for which the IC50 in experiment [1] (setting [5]) was 2000 nM; with HCT116 cells (HCT-116, 72 h, Table 5F), 2000 nM. In addition, in experiment [2] (setting [6]), the EC50 is 3000 nM.

With `Nc1ccccc1NC(=O)c1ccc(CC2Oc3ccccc3NC2=O)cc1` (stereo not drawn) [compound 270, N-(2-Amino-phenyl)-4-(3-oxo-3,4-dihydro-2H-benzo[1,4]oxazin-2-ylmethyl)-benzamide], the IC50 in experiment [1] (setting [5]) was 4000 nM; in the experiment with HCT116 cells (HCT-116, 72 h, Table 5F) it was 1000 nM. Also, the EC50 in experiment [2] (setting [6]) was 5000 nM.

In the case of `Nc1ccccc1NC(=O)c1ccc(CC2Cc3ccccc3C2=O)cc1` (stereo not drawn) [compound 272, N-(2-Amino-phenyl)-4-(1-oxo-indan-2-ylmethyl)-benzamide], the IC50 in experiment [1] (setting [5]) was 2000 nM; in the experiment on HCT116 cells (HCT-116, 72 h, Table 5F), 600 nM. Also, the EC50 in experiment [2] (setting [6]) is less than 1000 nM.

Regarding `Nc1ccccc1NC(=O)c1ccc(CC2Cc3ccccc3C2O)cc1` (stereo not drawn) [compound 275, N-(2-Amino-phenyl)-4-(1-hydroxy-indan-2-ylmethyl)-benzamide], the IC50 in experiment [1] (setting [5]) was 4000 nM; with HCT116 cells (HCT-116, 72 h, Table 5F), 900 nM. Moreover, the EC50 in experiment [2] (setting [6]) came to 2000 nM.

In the case of `Cc1nn(-c2ccccc2)c(C)c1Cc1ccc(C(=O)Nc2ccccc2N)cc1` [compound 277, N-(2-Amino-phenyl)-4-(3,5-dimethyl-1-phenyl-1H-pyrazol-4-ylmethyl)-benzamide], the IC50 amounted to 4000 nM in experiment [1] (setting [5]) and 300 nM in the experiment with HCT116 cells (HCT-116, 72 h, Table 5F). Moreover, the EC50 in experiment [2] (setting [6]) amounted to 1000 nM.

As for `CC(=O)Nc1sc(Cc2ccc(C(=O)Nc3ccccc3N)cc2)c(C)c1C#N` [compound 281, N-(2-Amino-phenyl)-4-(5-acetylamino-4-cyano-3-methyl-thiophen-2-ylmethyl)-benzamide], the IC50 in experiment [1] (setting [5]) was 500 nM; in the experiment on HCT116 cells (HCT-116, 72 h, Table 5F), 600 nM. Besides, the EC50 in experiment [2] (setting [6]) was determined as 1000 nM.

Consider `COc1cc(N2CC(c3ccc(C(=O)Nc4ccccc4N)cc3)OC2=O)cc(OC)c1OC` (stereo not drawn) [compound 297, N-(2-Amino-phenyl)-4-[2-oxo-3-(3,4,5-trimethoxy-phenyl)-oxazolidin-5-yl]-benzamide], for which the IC50 worked out at 7000 nM in experiment [1] (setting [5]) and 400 nM in the experiment on HCT116 cells (HCT-116, 72 h, Table 5F). Moreover, the EC50 in experiment [2] (setting [6]) was 1000 nM.

Regarding `COc1ccc2[nH]c(SCc3ccc(C(=O)Nc4ccccc4O)cc3)nc2c1` [compound 311], the IC50 in experiment [1] (setting [5]) stood at 900 nM; with HCT116 cells (HCT-116, 72 h, Table 5F), 700 nM. Besides, in experiment [2] (setting [6]), the half-maximal effective concentration (EC50) came to 1000 nM.

`COc1ccc(N(Cc2ccc(C(=O)Nc3ccccc3N)cc2)C(=O)Nc2ccc(SC)cc2)cc1OC` [compound 317, N-(2-Aminophenyl)-4-[1-(3,4-dimethoxyphenyl)-3-(4-methylsulfanylphenyl)-ureidomethyl]-benzamide]: the IC50 in experiment [1] (setting [5]) turned out to be 2000 nM; in the experiment with HCT116 cells (HCT-116, 72 h, Table 5F), 300 nM. The EC50 in experiment [2] (setting [6]) turned out to be 1000 nM.

Regarding `COc1ccc2nc(SCc3ccc(C(=O)Nc4ccccc4N)cc3)[nH]c2c1` [compound 376, N-(2-Amino-phenyl)-4-(5-methoxy-1H-benzimidazol-2-yl-sulfanylmethyl)-benzamide], the IC50 in experiment [1] (setting [5]) is 3000 nM; in the experiment with HCT116 cells (HCT-116, 72 h, Table 5F), 100 nM. Besides, the EC50 in experiment [2] (setting [6]) was found to be 1000 nM.

In the case of `COc1ccc(NCc2ccc3oc(C(=O)Nc4ccccc4N)cc3c2)cc1OC` [compound 587, 5-[(3,4-Dimethoxy-phenylamino)-methyl]-benzofuran-2-carboxylic acid (2-amino-phenyl)-amide], the IC50 was 5000 nM in experiment [1] (setting [5]) and 800 nM with HCT116 cells (HCT-116, 72 h, Table 5F). For the same compound, the EC50 in experiment [2] (setting [6]) is 2000 nM.

On to `COc1cc(CNc2ccc3sc(C(=O)Nc4ccccc4N)cc3c2)cc(OC)c1OC` [compound 590, 5-(3,4,5-Trimethoxy-benzylamino)-benzo[b]thiophene-2-carboxylic acid (2-amino-phenyl)-amide], for which the IC50 in experiment [1] (setting [5]) is 2000 nM; with HCT116 cells (HCT-116, 72 h, Table 5F) it was 2000 nM. Moreover, the EC50 in experiment [2] (setting [6]) stood at 3000 nM.

For the origin of these results see patent publication US7868204B2, “Inhibitors of histone deacetylase” (MethylGene Inc., priority 2001, dated 2011).
